From paper PMC6112376, “Comprehensive Analyses and Prioritization of Tox21 10K Chemicals Affecting Mitochondrial Function by in-Depth Mechanistic Studies” (Environmental Health Perspectives, 2018)
Read-outs that look alike come from different tables or passages of the source.

What was measured:
[1] = system: HepG2 cells; conditions: for IC50: read-out: MMP assays IC50 (µM) HepG2
[2] = system: rat primary hepatocytes; assay: MMP assay in rat primary hepatocytes; conditions: for IC50: read-out: MMP assays IC50 (µM) Rat Hepatocytes
[3] = system: HepG2 cells; conditions: cited from earlier work
[4] = HepG2 cells, single number from one experiment
[5] = rat hepatocytes, mean ± SD of three experiments
[6] = read-out: MMP assays IC50 (µM) qHTS-HepG2
[7] = read-out: MMP assays IC50 (µM), qHTS-HepG2

| Compound | MMP assays efficacy (%) HepG2 [1, 4] | IC50 [1, 4] [µM] | MMP assays efficacy (%) Rat Hepatocytes [2, 5] | IC50 [2, 5] [µM] | MMP assays efficacy (%) qHTS-HepG2 [3] | IC50 [3, 6] [µM] | MMP assays IC50 (µM) Rat Hepatocytes [2, 5] | MMP assays IC50 (µM) HepG2 [1, 4] | IC50 [3, 7] [µM] | MMP assays IC50 (µM) HepG2 [1] | MMP assays efficacy (%) HepG2 [1] | IC50 ([2]; Rattus norvegicus, Hepatocyte) [µM] | MMP assays IC50 (µM) qHTS-HepG2 [3] | MMP assays IC50 (µM) Rat Hepatocytes [2] | IC50 [1] [µM] | IC50 [2] [µM] |
| --- | --- | --- | --- | --- | --- | --- | --- | --- | --- | --- | --- | --- | --- | --- | --- | --- |
| Oc1ccc2cc(SSc3ccc4cc(O)ccc4c3)ccc2c1 [6-Hydroxy-2-naphthyl disulfide] | -98% | 28.2 | -68±46% | 39.8 | -110±7% | 33.7 ± 3.64 | – | – | – | – | – | – | – | – | – | – |
| CCCCCCCC[N+](CCCCCCCC)(CCCCCCCC)CCCCCCCC.[Br-] [tetra-N-Octylammonium bromide] | -92% | 0.13 | inactive | – | -88±6% | – | inactive | – | – | – | – | – | – | – | – | – |
| CCCCCc1ccco1 [Compound 2-Pentylfuran] | inactive | – | inactive | – | -76±20% | 42.2 ± 2.81 | inactive | inactive | – | – | – | – | – | – | – | – |
| CC(C)COC(=O)c1ccc(O)cc1 [Isobutylparaben] | -129% | 14.1 | inactive | – | -91±6% | – | inactive | – | 14.2 ± 1.82 | – | – | – | – | – | – | – |
| CC(=O)O[C@@]12CO[C@@H]1C[C@H](O)[C@@]1(C)C(=O)[C@H](O)C3=C(C)[C@@H](OC(=O)[C@H](O)[C@@H](NC(=O)OC(C)(C)C)c4ccccc4)C[C@@](O)([C@@H](OC(=O)c4ccccc4)[C@H]21)C3(C)C [Docetaxel] | – | – | – | – | -57±17% | 15 ± 29.8 | – | – | – | inactive | inactive | 12.1 ± 4.78 | – | – | – | – |
| CC(C)(C)OC(=O)c1ccc(O)cc1 [tert-Butyl 4-hydroxybenzoate] | -105% | 35.5 | -80±10% | 50.8 ± 9.48 | -99±24% | – | – | – | 25.3 ± 7.32 | – | – | – | – | – | – | – |
| CCCCCCCCOc1ccc(C(=O)O)cc1 [4-Octyloxybenzoic acid] | inactive | – | -57±30% | 48 ± 11.6 | -100±24% | 39.6 ± 31.3 | – | inactive | – | – | – | – | – | – | – | – |
| Verteporfin | -127% | 8.69 | -43±14% | 21.8 ± 7.79 | -65±5% | – | – | – | 3.27 ± 1.85 | – | – | – | – | – | – | – |
| CN[C@H]1CC[C@@H](c2ccc(Cl)c(Cl)c2)c2ccc(S(N)(=O)=O)cc21 | -84% | 10 | -51±37% | 35.7 ± 5.79 | -78±20% | 8.31 ± 1.43 | – | – | – | – | – | – | – | – | – | – |
| CCc1ccc(O)cc1 [Compound 4-Ethylphenol] | inactive | – | inactive | – | inactive | – | inactive | inactive | – | – | – | – | inactive | – | – | – |
| CCCCC/C(C=O)=C/c1ccccc1 [Amyl cinnamal] | – | – | – | – | inactive | – | – | – | – | inactive | inactive | – | inactive | inactive | – | – |
| CCCCCCCCCCCCCC[P+](CCCCCC)(CCCCCC)CCCCCC.[Cl-] [Trihexyltetradecylphosphonium chloride] | -101% | 0.89 | -91±44% | 30.3 ± 8.97 | -113±11% | – | – | – | 0.77 ± 0.35 | – | – | – | – | – | – | – |
| O=C1OC(OC(=O)c2cccnc2Nc2cccc(C(F)(F)F)c2)c2ccccc21 (stereo not shown) [Talniflumate] | inactive | – | -85±2% | – | -105±19% | – | – | inactive | 27 ± 2.56 | – | – | 16 ± 6.68 | – | – | – | – |
| CC(=O)c1ccc2ccc3ccccc3c2c1 [Compound 3-Acetylphenanthrene] | -105% | 56.2 | -44±5% | 42.2 ± 19.8 | -105±10% | 36.9 ± 13.7 | – | – | – | – | – | – | – | – | – | – |
| O=C=Nc1cccc(C(F)(F)F)c1 [1-Isocyanato-3-(trifluoromethyl)benzene] | -108% | 6.31 | -107±13% | 11.5 ± 3.69 | -119±7% | 3.28 ± 1.13 | – | – | – | – | – | – | – | – | – | – |
| COc1ccc(C(=O)c2ccccc2)c(O)c1 [Compound 2-Hydroxy-4-methoxybenzophenone] | inactive | – | – | – | inactive | – | – | inactive | – | – | – | 50.1 ± 18.9 | inactive | – | – | – |
| O=C(Nc1ccc([N+](=O)[O-])cc1)Nc1ccc([N+](=O)[O-])cc1 [4,4'-Dinitrodiphenylurea] | – | – | – | – | -79±2% | 0.46 ± 0.06 | – | – | – | – | -90% | – | – | – | 0.97 | 0.7 ± 0.46 |
| COc1cc(Cl)ccc1Cl [2,5-Dichloroanisole] | inactive | – | inactive | – | inactive | – | inactive | inactive | – | – | – | – | inactive | – | – | – |
| CCCCCCCCCCCC[n+]1ccc2ccccc2c1.Cc1ccc(S(=O)(=O)[O-])cc1 [2-Dodecylisoquinolinium tosylate] | -110% | 4.35 | -95±7% | 4.94 ± 2.78 | -83±5% | 3.53 ± 0.5 | – | – | – | – | – | – | – | – | – | – |
